Experimental data as given in ChEMBL document CHEMBL1765077, “Nonterpenoid C15 acetogenins from Laurencia marilzae” (2011).

Tests used:
Type in all cases: functional
WiDr = assay: Antiproliferative activity against human WiDr cells after 48 hrs
T47D = assay: Antiproliferative activity against human T47D cells after 48 hrs
SW1573 = assay: Antiproliferative activity against human SW1573 cells after 48 hrs; conditions: SW1573, 48 h
HeLa = assay: Antiproliferative activity against human HeLa cells after 48 hrs
HBL-100 = assay: Antiproliferative activity against human HBL100 cells after 48 hrs; conditions: HBL-100, 48 h
A2780 = assay: Antiproliferative activity against human A2780 cells after 48 hrs; conditions: A2780, 48 h

Measured: GI50

COC(=O)/C=C\[C@H]1C[C@H]2O[C@@H](C[C@H]2Cl)[C@@H](Br)C[C@H]2O[C@@H]2[C@H](C)O1
> 10 µg/mL: WiDr | T47D | SW1573 | HeLa | HBL-100 | A2780

C[C@H]1/C=C/C[C@H](Br)[C@@H]2C[C@@H](Cl)[C@@H](C[C@H](C=C=CBr)O1)O2 [OBTUSALLENE IV]
> 10 µg/mL: WiDr | T47D | SW1573 | HeLa | HBL-100 | A2780

C/C=C/[C@H]1C/C=C\C[C@@H](Cl)[C@@H](C[C@@H](O)C=C=CBr)O1 [MARILZALLENE]
> 10 µg/mL: WiDr | T47D | SW1573 | HeLa | HBL-100 | A2780

C#C/C=C\CC(O)C(Cl)C/C=C\CC(Cl)C(Br)CC (mixture of isomers)
> 10 µg/mL: WiDr | T47D | SW1573 | HeLa | HBL-100 | A2780

C/C=C/[C@H]1C/C=C\C[C@@H](Cl)[C@@H](C[C@H](C=C=CBr)OC(C)=O)O1
> 10 µg/mL: WiDr | T47D | SW1573 | HeLa | HBL-100 | A2780

C[C@@H]1O[C@@H](C=C=CBr)C[C@H]2O[C@@H](C[C@H]2Cl)[C@@H](Br)C[C@H]2O[C@H]12
> 10 µg/mL: WiDr | T47D | SW1573 | HeLa | HBL-100 | A2780
